≈ marks a conversion by molar mass, not a printed value. Numbered stars: 1 amine (or outer) side, 2 acyl side, 3 side chain; on linkers, the order of the positions; unused ones are H or OH. Bridge positions count the residues as written; N and C are the ends. Square brackets hold non-standard residues; d marks the D form. Peptide text beside a SMILES is read from it. * marks the point of attachment. Orn(4R-OH,5R-OH) = O=C([C@H](C[C@@H](O)[C@@H](O)N[*:3])N[*:1])[*:2]; X3 = O=C([C@@H](N[*:1])[C@H](O)[C@@H](O)c1ccc(OP(=O)(O)O)cc1)[*:2]; hTyr(3S-OH,4S-OH) = N[C@H](C(=O)O)[C@H](O)[C@@H](O)c1ccc(O)cc1; X4 = O=C([C@@H](N[*:1])[C@H](O)[C@H](O)c1ccc(O)cc1)[*:2]; X2 = O=C([C@@H](N[*:1])[C@H](O)[C@@H](O)c1ccccc1)[*:2]; X6 = O=C(Oc1ccc(O)cc1)[C@@H](O)[C@H](N[*:1])C(=O)[*:2]; hTyr(3R-OH) = N[C@H](C(=O)O)[C@H](O)Cc1ccc(O)cc1; Gln(3R-OH) = NC(=O)C[C@@H](O)[C@H](N)C(=O)O; X5 = O=C([C@@H](N[*:1])[C@H](O)CO)[*:2]; Pro(3S-OH) = O=C(O)[C@H]1NCC[C@@H]1O; Hyp = O=C(O)[C@@H]1C[C@@H](O)CN1; X1 = CCC(C)CC(C)CCCCCCCCC(=O)*
Experiments:
Candida albicans [1] = assay: The compound was tested for its antifungal activity against Candida albicans (MY1055); format: functional
Candida albicans [2] = assay: The compound was tested for inhibition of 1,3-beta-glucan synthesis in a preparation containing membranes from Candida albicans (MY1208); format: functional
Candida parapsilosis = assay: The compound was tested for its antifungal activity against Candida parapsilosis (MY1010); format: functional; conditions: Lodderomyces parapsilosis
Candida tropicalis = assay: The compound was tested for its antifungal activity against Candida tropicalis (MY1012); format: functional
Mus musculus [3] = assay: Minimum effective dose required for 99.9% reduction of viable CFUs recoverable from mouse kidneys infected with Candida albicans (MY1208) using in vivo Target Organ Kidney Assay (TOKA); format: functional
Mus musculus [4] = species on record: Mus musculus; assay: Minimum effective dose required for 99.9% reduction of viable CFUs recoverable from mouse kidneys compared with sham-treated controls.; format: functional, Kidney

IC50 (Candida albicans [2]) [nM] | Structure (SMILES) | MFC (Candida albicans [1]) [µg/mL] | MFC (Candida parapsilosis) [µg/mL] | MFC (Candida tropicalis) [µg/mL] | MED99.9 (Mus musculus [3]) [mg/kg] | MED99.9 (Mus musculus [4]) [mg/kg]
70 | CCC(C)CC(C)CCCCCCCCC(=O)N[C@H]1C[C@@H](O)[C@@H](O)NC(=O)[C@@H]2[C@@H](O)CCN2C(=O)[C@H]([C@H](O)CC(N)=O)NC(=O)[C@H]([C@H](O)[C@@H](O)c2ccc(O)cc2)NC(=O)[C@@H]2C[C@@H](O)CN2C(=O)[C@H]([C@@H](C)O)NC1=O (stereo partly drawn) (X1-[Orn(4R-OH,5R-OH)]T[Hyp][hTyr(3S-OH,4S-OH)][Gln(3R-OH)][Pro(3S-OH)]; lactam 1-C) | 0.25 (≈ 0.235 µM) | 4 (≈ 3.76 µM) | 0.06 (≈ 0.0563 µM) | 6 | –
> 10000 | CCC(C)CC(C)CCCCCCCCC(=O)N[C@H]1C[C@@H](O)[C@@H](O)NC(=O)[C@@H]2[C@@H](O)CCN2C(=O)[C@H]([C@H](O)CC(N)=O)NC(=O)[C@H]([C@H](O)[C@@H](O)c2ccccc2)NC(=O)[C@@H]2C[C@@H](O)CN2C(=O)[C@H]([C@@H](C)O)NC1=O (stereo partly drawn) (X1-[Orn(4R-OH,5R-OH)]T[Hyp][X2][Gln(3R-OH)][Pro(3S-OH)]; lactam 1-C) | 4 (≈ 3.81 µM) | > 128 | 1 (≈ 0.953 µM) | >6 | –
5000 | CCC(C)CC(C)CCCCCCCCC(=O)N[C@H]1C[C@@H](O)[C@@H](O)NC(=O)[C@@H]2[C@@H](O)CCN2C(=O)[C@H]([C@H](O)CC(N)=O)NC(=O)[C@H]([C@H](O)[C@H](O)c2ccc(O)cc2)NC(=O)[C@@H]2C[C@@H](O)CN2C(=O)[C@H]([C@@H](C)O)NC1=O (stereo partly drawn) (X1-[Orn(4R-OH,5R-OH)]T[Hyp][X4][Gln(3R-OH)][Pro(3S-OH)]; lactam 1-C) | 8 (≈ 7.51 µM) | > 128 | 64 (≈ 60.1 µM) | – | >6

More lines, now with the values behind:

Structure (SMILES) | IC50 (Candida albicans [2]) [nM] | MFC (Candida albicans [1]) [µg/mL] | MFC (Candida parapsilosis) [µg/mL] | MFC (Candida tropicalis) [µg/mL] | MED99.9 (Mus musculus [3]) [mg/kg] | MED99.9 (Mus musculus [4]) [mg/kg]
CCC(C)CC(C)CCCCCCCCC(=O)N[C@H]1C[C@@H](O)[C@@H](O)NC(=O)[C@@H]2[C@@H](O)CCN2C(=O)[C@H]([C@H](O)CC(N)=O)NC(=O)[C@H]([C@H](O)C(=O)Oc2ccc(O)cc2)NC(=O)[C@@H]2C[C@@H](O)CN2C(=O)[C@H]([C@@H](C)O)NC1=O (stereo partly drawn) (X1-[Orn(4R-OH,5R-OH)]T[Hyp][X6][Gln(3R-OH)][Pro(3S-OH)]; lactam 1-C) | > 1000 | 32 (≈ 29.7 µM) | 1 (≈ 0.927 µM) | 8 (≈ 7.41 µM) | – | –
CCC(C)CC(C)CCCCCCCCC(=O)N[C@H]1C[C@@H](O)[C@@H](O)NC(=O)[C@@H]2[C@@H](O)CCN2C(=O)[C@H]([C@H](O)CC(N)=O)NC(=O)[C@H]([C@H](O)Cc2ccc(O)cc2)NC(=O)[C@@H]2C[C@@H](O)CN2C(=O)[C@H]([C@@H](C)O)NC1=O (stereo partly drawn) (X1-[Orn(4R-OH,5R-OH)]T[Hyp][hTyr(3R-OH)][Gln(3R-OH)][Pro(3S-OH)]; lactam 1-C) | 40 | 0.25 (≈ 0.238 µM) | 4 (≈ 3.81 µM) | < 0.06 | – | 3
CCC(C)CC(C)CCCCCCCCC(=O)N[C@H]1C[C@@H](O)[C@@H](O)NC(=O)[C@@H]2[C@@H](O)CCN2C(=O)[C@H]([C@H](O)CC(N)=O)NC(=O)[C@H]([C@H](O)CO)NC(=O)[C@@H]2C[C@@H](O)CN2C(=O)[C@H]([C@@H](C)O)NC1=O (stereo partly drawn) (X1-[Orn(4R-OH,5R-OH)]T[Hyp][X5][Gln(3R-OH)][Pro(3S-OH)]; lactam 1-C) | > 1000 | 32 (≈ 32.9 µM) | 8 (≈ 8.22 µM) | 8 (≈ 8.22 µM) | – | –
CCC(C)CC(C)CCCCCCCCC(=O)N[C@H]1C[C@@H](O)[C@@H](O)NC(=O)[C@@H]2[C@@H](O)CCN2C(=O)[C@H]([C@H](O)CC(N)=O)NC(=O)[C@H]([C@H](O)[C@@H](O)c2ccc(OP(=O)(O)O)cc2)NC(=O)[C@@H]2C[C@@H](O)CN2C(=O)[C@H]([C@@H](C)O)NC1=O (stereo partly drawn) (X1-[Orn(4R-OH,5R-OH)]T[Hyp][X3][Gln(3R-OH)][Pro(3S-OH)]; lactam 1-C) | > 10000 | 2 (≈ 1.75 µM) | 32 (≈ 27.9 µM) | 4 (≈ 3.49 µM) | 6 | –

From ChEMBL document CHEMBL1127119, “Pneumocandin antifungal lipopeptides. The phenolic hydroxyl is required for 1,3--glucan synthesis inhibition” (Bioorg Med Chem Lett, 1993)
